Data: patent US20180256489A1, “NATURAL FORMULATIONS” (priority 2010, published 2018)

Columns and labels:
[1] = Foaming by shaking in a covered glass cylinder; assay type: physicochemical; settings: Table 5; 1 wt % calculated saponins in distilled water
Experimental: (§1) Foaming properties of a solution of 1 wt % of the extract of the invention in water were measured by shaking 10 ml of the solution five times in a 100 ml covered glass cylinder. The volume of the generated foam was measured. Another method for measuring the foaming was performed by Moulinex LM240 blender at a maximum speed of 10 seconds for 80 ml solution. The generated foam was transferred to glass cylinder and measured. The same procedure was repeated with extracts obtained by various ethanol/water mixtures. Foaming—solution of 1 wt % of the extract in water was shaken five times in a glass cylinder as described above. The volume of the generated foam was measured. Another method for measuring the foaming was performed by Moulinex LM240 blender at a maximum speed of 10 seconds for 80 ml solution and measured in a glass cylinder, and the foaming results are detailed in Table 4 below.

[2] = Foaming by Moulinex LM240 blender; assay type: physicochemical; settings: Table 5; 1 wt % calculated saponins in distilled water
Experimental: as §1

[3] = tested on: erythrocytes of sheep blood; assay: Haemolysis test (model for eye irritation); assay type: cell-based; settings: 50% haemolysis, 30 minutes in ice, 540 nm
Experimental: Haemolysis test (which serves as a model for eye irritation) was conducted in order to determine the safety of the products of the invention in comparison to the commercial surfactant SLES (sodium lauryl ether sulfate).
Preparation of the erythrocyte suspension: erythrocytes of sheep blood were separated by centrifugation at 1250g, for 15 minutes at room temperature, washed three times with phosphate-buffered saline solution (PBS, pH 7.4), and centrifuged twice under the same condition. The blood volume was completed with PBS. This suspension was maintained at 4° C. for up to three days.
The assay procedure: 20 μl of each sample were diluted up to 2 ml of the suspension, and were incubated with for 30 minutes in ice. The incubation was terminated by a rapid, high-speed (1800 g) centrifugation for 30 minutes. The extent of haemolysis was determined in spectrophotometrically at 540 nm against a blank (PBS). The extent of haemolysis, expressed as a percentage, was calculated as the absorbance of an erythrocyte suspension incubated with each product, relative to that of a completely haemolysed control (100%, at distilled water) at 540 nm. The Hm50 (50% haemolysis) was determined from concentration—response curves.

Substance	Foam volume by shaking [1]	Foam volume by blender [2]	HM50 [3]
decyl glycoside [1 wt % Decyl glycoside]	57 (±5) ml	420 (±15) ml	
sodium lauryl ether sulfate [SLES]			0.001 gram/100 ml
